IC50 data for six compounds are collected here from patent US4350704A, “Substituted acyl derivatives of octahydro-1H-indole-2-carboxylic acids” (Warner-Lambert Company, priority 1981, dated 1982).

Structures can show the parent of a compound that is named as a salt.

The assay deals with T1, guinea pig serum ACE (Cavia porcellus, UniProt H0UWL7).
T1 construct: ACE from guinea pig serum; from tissue; host or cells: guinea pig serum
T1 sequence (H0UWL7 33-1302): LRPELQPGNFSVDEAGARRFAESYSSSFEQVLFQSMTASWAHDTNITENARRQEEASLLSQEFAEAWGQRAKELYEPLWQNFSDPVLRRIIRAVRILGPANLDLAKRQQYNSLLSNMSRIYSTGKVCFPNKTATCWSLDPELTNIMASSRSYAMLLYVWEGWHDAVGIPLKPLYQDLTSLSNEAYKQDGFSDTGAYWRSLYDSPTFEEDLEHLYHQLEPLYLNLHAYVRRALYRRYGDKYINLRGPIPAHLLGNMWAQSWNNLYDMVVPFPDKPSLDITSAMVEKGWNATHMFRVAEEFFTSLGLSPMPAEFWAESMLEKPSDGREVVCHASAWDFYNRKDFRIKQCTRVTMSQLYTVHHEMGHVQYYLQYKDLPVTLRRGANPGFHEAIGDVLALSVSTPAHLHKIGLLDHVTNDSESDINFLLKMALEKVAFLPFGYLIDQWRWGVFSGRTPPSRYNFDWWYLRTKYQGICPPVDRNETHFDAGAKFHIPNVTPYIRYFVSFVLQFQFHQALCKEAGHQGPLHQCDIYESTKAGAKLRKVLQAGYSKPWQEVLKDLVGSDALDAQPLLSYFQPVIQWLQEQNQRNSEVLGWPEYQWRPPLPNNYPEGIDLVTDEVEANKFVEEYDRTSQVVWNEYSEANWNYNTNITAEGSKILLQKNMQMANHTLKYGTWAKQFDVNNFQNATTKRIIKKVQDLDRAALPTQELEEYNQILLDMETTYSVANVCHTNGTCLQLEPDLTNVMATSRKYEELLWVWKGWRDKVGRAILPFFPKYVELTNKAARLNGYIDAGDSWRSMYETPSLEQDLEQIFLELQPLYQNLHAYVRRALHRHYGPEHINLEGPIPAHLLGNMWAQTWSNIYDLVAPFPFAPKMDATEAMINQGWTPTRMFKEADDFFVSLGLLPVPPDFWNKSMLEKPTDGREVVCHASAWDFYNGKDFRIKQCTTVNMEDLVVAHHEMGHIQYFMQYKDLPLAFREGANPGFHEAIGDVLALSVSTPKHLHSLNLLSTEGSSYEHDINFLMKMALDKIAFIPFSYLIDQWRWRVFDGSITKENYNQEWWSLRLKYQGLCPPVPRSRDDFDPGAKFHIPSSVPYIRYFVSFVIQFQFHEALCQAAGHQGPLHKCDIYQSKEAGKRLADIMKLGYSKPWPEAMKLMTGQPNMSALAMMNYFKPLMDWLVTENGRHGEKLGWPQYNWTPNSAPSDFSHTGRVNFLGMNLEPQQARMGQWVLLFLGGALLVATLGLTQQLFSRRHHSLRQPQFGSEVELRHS
Kind of assay: In vitro ACE Assay: angiotensin converting enzyme inhibitory activity. Format: biochemical. As to conditions: 10 min preincubation, 3H-hippuryl-glycylglycine substrate, 60 minute incubation at 37° C., read-out: IC50, Activity of Compounds of Formula V. As to the method: In vitro ACE Assay: Angiotensin converting enzyme (ACE) inhibitory activity is determined by assaying guinea pig serum ACE in the presence and absence of the test compound. ACE from guinea pig serum and the test compounds are preincubated for 10 minutes before the addition of the labelled substrate ^3 H-hippuryl-glycylglycine. […] ACE cleaves the hippuryl-glycyl bond to form the dipeptide glycyl-glycine and ^3 H-hippuric acid. The ^3 H-hippuric acid is then extracted with ethyl acetate and the ACE inhibition of a given sample calculated on the basis of the ^3 H-hippuric acid generated.
As to `CCOC(=O)[C@@H]1C[C@@H]2CCCC[C@@H]2N1C(=O)CCSC(C)=O` (relative stereo) [V: R=C2H5; R1=H; R2=CH3CO; --, Ethyl (2α, 3aβ, 7aβ)-Octahydro-1-[3-(acetylthio)propanoyl]-1H-indole-2-carboxylate], the IC50 (commonly the concentration at which inhibition is half-maximal) turned out to be 3800 nM. The result for `CC(C)(C)C(=O)SCCC(=O)N1[C@H](C(=O)O)C[C@@H]2CCCC[C@@H]21` (relative stereo) [V: R=H; R1=H; R2=(CH3)3CCO; dl] reads 58 nM; that for `CC(=O)SCCC(=O)N1[C@H](C(=O)O)C[C@@H]2CCCC[C@@H]21` (relative stereo) [V: R=H; R1=H; R2=CH3CO; --, (2α, 3aβ, 7aβ)-Octahydro-1-[3-(acetylthio)propanoyl]-1H-indole-2-carboxylic Acid], 450 nM. The result for `O=C(O)[C@@H]1C[C@@H]2CCCC[C@@H]2N1C(=O)CCS` (relative stereo) [V: R=H; R1=H; R2=H; --, (2α, 3aβ, 7aβ)-Octahydro-1-(3-mercaptopropanoyl)-1H-indole-2-carboxylic Acid] reads 21 nM; that for `CC(CS)C(=O)N1[C@H](C(=O)O)C[C@@H]2CCCC[C@@H]21` (single isomer, unassigned; diastereomer a) [V: R=H; R1=CH3; R2=H; l, A, (1)-(2α, 3aβ, 7aβ)-Octahydro-1-(3-mercapto-2-methylpropanoyl)-1H-2-carboxylic Acid (Diastereomer A), Dicyclohexylamine Salt], 5.2 nM; that for `CC(CSC(=O)c1ccccc1)C(=O)N1[C@H](C(=O)O)C[C@@H]2CCCC[C@@H]21` (single isomer, unassigned; diastereomer a) [V: R=H; R1=CH3; R2=PhCO; l, A, (1)-(2α, 3aβ, 7aβ)-Octahydro-1-[3-(benzoylthio)-2-methylpropanoyl]-1H-indole-2-carboxylic Acid (Diastereomer A)], 540 nM.
